Measurements as given in patent publication US9682938B2, “Pyrazolone derivatives as nitroxyl donors” (Cardioxyl Pharmaceuticals, Inc., priority 2014, dated 2017).

What was measured:
Assay type in all cases: in vitro ADME
[1] = In vitro plasma stability, dog plasma; settings: male, pH 7.4, 5 μM, 37° C., sampling 0-360 minutes, read-out: T1/2 Dog
Experimental: (§1) Certain compounds from Table 1 were tested for their stability in plasma. The assay system comprised plasma from rat, dog or human (at least 3 donors, male, pooled) at pH 7.4, and (ii) an anticoagulant (sodium heparin or sodium citrate). Each test compound (5 μM) was incubated in plasma at 37° C. on a THERMOMIXER® with shaking. Three samples (n=3) were taken at each of seven sampling time points: 0, 10, 30, 60, 90, 180 and 360 minutes. The samples were immediately combined with 3 volumes (i.e., 3 times the volume of plasma) of acetonitrile containing 1% formic acid and an internal standard to terminate the reaction. AB SCIEX API 3000 LC-MS/MS analysis of the test compounds was performed without a standard curve. Plasma half-lives (T1/2) of the test compounds were determined from graphs of the percent remaining values using the peak area response ratio.

[2] = In vitro plasma stability, rat plasma; settings: male, pH 7.4, 5 μM, 37° C., sampling 0-360 minutes, read-out: T1/2 Rat
Experimental: as §1

[3] = In vitro plasma stability, human plasma; settings: male, pH 7.4, 5 μM, 37° C., sampling 0-360 minutes, read-out: T1/2 Human
Experimental: as §1

For CN1N=C(c2ccc(C(=O)N3CCOCC3)cc2)C(C)(NO)C1=O (stereo not drawn) [Compound 81, 4-(Hydroxyamino)-1,4-dimethyl-3-[4-(morpholine-4-carbonyl)phenyl]-4,5-dihydro-1H-pyrazol-5-one], the half-life at 5 μM [1] was 84 min, the half-life at 5 μM [2] was 148 min and the half-life at 5 μM [3] was 76 min.
In the case of CN1N=C(c2ccc(S(C)(=O)=O)c(N3CCOCC3)c2)C(C)(NO)C1=O (stereo not drawn) [Compound 82, 4-(Hydroxyamino)-3-[4-methanesulfonyl-3-(morpholin-4-yl)phenyl]-1,4-dimethyl-4,5-dihydro-1H-pyrazol-5-one], the half-life at 5 μM [1] is reported as 56 min, the half-life at 5 μM [2] is reported as 69 min and the half-life at 5 μM [3] is reported as 46 min.
COCCN(C)c1cc(C2=NN(C)C(=O)C2(C)NO)ccc1S(C)(=O)=O (stereo not drawn) [Compound 83, 4-(Hydroxyamino)-3-{4-methanesulfonyl-3-[(2-methoxyethyl)(methyl)amino]phenyl}-1,4-dimethyl-4,5-dihydro-1H-pyrazol-5-one] showed a half-life at 5 μM [1] of 66 min, a half-life at 5 μM [2] of 89 min and a half-life at 5 μM [3] of 51 min.
In the case of CN1N=C(c2ccc(C(=O)N3CCC(F)(F)CC3)cc2)C(C)(NO)C1=O (stereo not drawn) [Compound 85, 3-[4-(4,4-Difluoropiperidine-1-carbonyl)phenyl]-4-(hydroxyamino)-1,4-dimethyl-4,5-dihydro-1H-pyrazol-5-one], the half-life at 5 μM [1] is reported as 86 min, the half-life at 5 μM [2] is reported as 125 min and the half-life at 5 μM [3] is reported as 105 min.
CCS(=O)(=O)c1ccc(C2=NN(C)C(=O)C2(C)NO)cc1 (stereo not drawn) [Compound 86, 3-[4-(Ethanesulfonyl)phenyl]-4-(hydroxyamino)-1,4-dimethyl-4,5-dihydro-1H-pyrazol-5-one] gave a half-life at 5 μM [1] of 39 min, a half-life at 5 μM [2] of 61 min and a half-life at 5 μM [3] of 47 min.
For CN1N=C(c2ccc(S(C)(=O)=O)c(N(C)C)c2)C(C)(NO)C1=O (stereo not drawn) [Compound 87, 3-[3-(Dimethylamino)-4-methanesulfonylphenyl]-4-(hydroxyamino)-1,4-dimethyl-4,5-dihydro-1H-pyrazol-5-one], the half-life at 5 μM [1] was 42 min, the half-life at 5 μM [2] was 63 min and the half-life at 5 μM [3] was 47 min.
Molecule CN1CCN(c2cc(C3=NN(C)C(=O)C3(C)NO)ccc2S(C)(=O)=O)CC1 (stereo not drawn) [Compound 88, 4-(Hydroxyamino)-3-[4-methanesulfonyl-3-(4-methylpiperazin-1-yl)phenyl]-1,4-dimethyl-4,5-dihydro-1H-pyrazol-5-one] has a half-life at 5 μM [1] of 42 min, a half-life at 5 μM [2] of 65 min and a half-life at 5 μM [3] of 49 min.
With CN1N=C(c2ccc(S(=O)(=O)c3ccccc3)cc2)C(C)(NO)C1=O (stereo not drawn) [Compound 89, 3-[4-(Benzenesulfonyl)phenyl]-4-(hydroxyamino)-1,4-dimethyl-4,5-dihydro-1H-pyrazol-5-one] the half-life at 5 μM [1] was 29 min, the half-life at 5 μM [2] was 36 min and the half-life at 5 μM [3] was 57 min.
Work on COCCN(C)S(=O)(=O)c1ccc(C2=NN(C)C(=O)C2(C)NO)cc1 (stereo not drawn) [Compound 90, 4-[4-(Hydroxyamino)-1,4-dimethyl-5-oxo-4,5-dihydro-1H-pyrazol-3-yl]-N-(2-methoxyethyl)-N-methylbenzene-1-sulfonamide] yielded a half-life at 5 μM [1] of 37 min, a half-life at 5 μM [2] of 72 min and a half-life at 5 μM [3] of 49 min.
CN1N=C(c2ccc(C(N)=O)cc2)C(C)(NO)C1=O (stereo not drawn) [Compound 92, 4-[4-(Hydroxyamino)-1,4-dimethyl-5-oxo-4,5-dihydro-1H-pyrazol-3-yl]benzamide] gave a half-life at 5 μM [1] of 166 min, a half-life at 5 μM [2] of 270 min and a half-life at 5 μM [3] of 169 min.
For CN1N=C(c2ccc(S(C)(=O)=O)c(N3CCNCC3)c2)C(C)(NO)C1=O (stereo not drawn) [Compound 93, 4-(Hydroxyamino)-3-[4-methanesulfonyl-3-(piperazin-1-yl)phenyl]-1,4-dimethyl-4,5-dihydro-1H-pyrazol-5-one], the half-life at 5 μM [1] was 32 min, the half-life at 5 μM [2] was 66 min and the half-life at 5 μM [3] was 35 min.
Molecule C[C@H](NC(=O)c1ccc(C2=NN(C)C(=O)C2(C)NO)cc1)C(=O)O (stereo partly drawn) [Compound 94] has a half-life at 5 μM [1] of 114 min, a half-life at 5 μM [2] of 191 min and a half-life at 5 μM [3] of 103 min.
Molecule CN1N=C(c2ccc(S(C)(=O)=O)c(C(F)(F)F)c2)C(C)(NO)C1=O (stereo not drawn) [Compound 97, 4-(Hydroxyamino)-3-[4-methanesulfonyl-3-(trifluoromethyl)phenyl]-1,4-dimethyl-4,5-dihydro-1H-pyrazol-5-one] has a half-life at 5 μM [1] of 32 min, a half-life at 5 μM [2] of 23 min and a half-life at 5 μM [3] of 25 min.
In the case of CC1=NN(C)C(=O)C1(NO)c1cccc(C)c1 (stereo not drawn) [Compound 98, 4-(Hydroxyamino)-1,3-dimethyl-4-(3-methylphenyl)-4,5-dihydro-1H-pyrazol-5-one], the half-life at 5 μM [1] is reported as 16 min, the half-life at 5 μM [2] is reported as 11 min and the half-life at 5 μM [3] is reported as 12 min.
CN1N=C(c2ccc(S(C)(=O)=O)c(S(C)(=O)=O)c2)C(C)(NO)C1=O (stereo not drawn) [Compound 104, 3-(3,4-Dimethanesulfonylphenyl)-4-(hydroxyamino)-1,4-dimethyl-4,5-dihydro-1H-pyrazol-5-one] gave a half-life at 5 μM [1] of 33 min, a half-life at 5 μM [2] of 59 min and a half-life at 5 μM [3] of 28 min.
For CC1=NN(C)C(=O)C1(NO)/C(C)=N/OCC(C)C (stereo not drawn) [Compound 105, 4-(Hydroxyamino)-1,3-dimethyl-4-[1-[(2-methylpropoxy)imino]ethyl]-4,5-dihydro-1H-pyrazol-5-one], the half-life at 5 μM [1] was 4 min, the half-life at 5 μM [2] was 4 min and the half-life at 5 μM [3] was 6 min.
Work on CCO/N=C(\C)C1(NO)C(=O)N(C)N=C1C (stereo not drawn) [Compound 106, 4-[1-(Ethoxyimino)ethyl]-4-(hydroxyamino)-1,3-dimethyl-4,5-dihydro-1H-pyrazol-5-one] yielded a half-life at 5 μM [1] of 8 min, a half-life at 5 μM [2] of 7 min and a half-life at 5 μM [3] of 6 min.
Molecule CO/N=C(\C)C1(NO)C(=O)N(C)N=C1c1ccc(OC)cc1 (stereo not drawn) [Compound 107, 4-(Hydroxyamino)-4-[1-(methoxyimino)ethyl]-3-(4-methoxyphenyl)-1-methyl-4,5-dihydro-1H-pyrazol-5-one] has a half-life at 5 μM [1] of 10 min, a half-life at 5 μM [2] of 49 min and a half-life at 5 μM [3] of 18 min.
For CN1N=C(c2ccc(Br)cc2)C(C)(NO)C1=O (stereo not drawn) [Compound 108, 3-(4-Bromophenyl)-4-(hydroxyamino)-1,4-dimethyl-4,5-dihydro-1H-pyrazol-5-one], the half-life at 5 μM [1] was 136 min, the half-life at 5 μM [2] was 89 min and the half-life at 5 μM [3] was 61 min.
In the case of CN1N=C(c2ccccc2)C(NO)(c2ccccc2)C1=O (stereo not drawn) [Compound 109, 4-(Hydroxyamino)-1-methyl-3,4-diphenyl-4,5-dihydro-1H-pyrazol-5-one], the half-life at 5 μM [1] is reported as 11 min, the half-life at 5 μM [2] is reported as 8 min and the half-life at 5 μM [3] is reported as 10 min.
Molecule CCOC1=NN(c2ccccc2)C(=O)C1(NO)/C(C)=N/OC (stereo not drawn) [Compound 110, 3-Ethoxy-4-(hydroxyamino)-4-[1-(methoxyimino)ethyl]-1-phenyl-4,5-dihydro-1H-pyrazol-5-one] has a half-life at 5 μM [1] of 12 min, a half-life at 5 μM [2] of 62 min and a half-life at 5 μM [3] of 11 min.
CCOC1=NN(c2ccc(Br)cc2)C(=O)C1(NO)/C(C)=N/OC (stereo not drawn) [Compound 111, 1-(4-Bromophenyl)-3-ethoxy-4-(hydroxyamino)-4-[1-(methoxyimino)ethyl]-4,5-dihydro-1H-pyrazol-5-one] gave a half-life at 5 μM [1] of 24 min, a half-life at 5 μM [2] of 23 min and a half-life at 5 μM [3] of 29 min.
Work on CN1N=C(c2ccc(S(=O)(=O)N3CCC(F)(F)CC3)cc2)C(C)(NO)C1=O (stereo not drawn) [Compound 114, 3-{4-[(4,4-Difluoropiperidin-1-yl)sulfonyl]phenyl}-4-(hydroxyamino)-1,4-dimethyl-4,5-dihydro-1H-pyrazol-5-one] yielded a half-life at 5 μM [1] of 42 min, a half-life at 5 μM [2] of 49 min and a half-life at 5 μM [3] of 25 min.
